According to article PMC7556317 (Chembiochem : a European journal of chemical biology, 2009):

Key:
Her-2 in SkBr3 cells = assay: Her-2 depletion in SkBr3 cells as pharmacodynamic marker of cellular efficacy; type: cell-based; settings: read-out: PD (Her-2 depletion in SkBr3 cells, EC50); SkBr3 cells treated with the inhibitor overnight
BT474 breast tumor cells = settings: xenografts bearing BT474 breast tumor cells; cited from earlier work

EC50 (Her-2 in SkBr3 cells)	Structure (SMILES)	Effect on tumor in xenografts (BT474 breast tumor cells)
≤ 500 nM	CC1=CC(=NOCC(=O)N2CCCCC2)Cc2cc(O)cc(O)c2C(=O)OCCC=CCC1 [Compound A1B3C4D1]	
≤ 500 nM	CC1C=CCCOC(=O)c2c(O)cc(O)cc2CC(=NOCC(=O)N2CCCCC2)C=CC1 (stereo not drawn) [Compound A1B4C4D1]	
	O=C1OCC/C=C/CC/C=C/C(=N/OCC(=O)N2CCCCC2)Cc2c(Cl)c(O)cc(O)c21 [Pochoxime A]	tumor regression
